Assay results reported in patent publication US10687529B2, “Nematotoxic composition of synergistic effect, use of a nematotoxic composition of synergistic effect” (EMPRESA BRASILEIRA DE PESQUISA AGROPECUARIA-EMBRAPA, priority 2012, dated 2020).

Columns and labels:
[1] = system: second-stage juveniles (J2) of M. incognita; assay: in vitro bioassay against second-stage juveniles (J2), 48 hours' exposure; assay type: in vivo; conditions: for % paralyzed namatodes: 0.17 g/L (of each compound in the composition)
Protocol: FIG. 1—effect of the aqueous crude extracts of seeds of antagonistic plants on (J2) of M. incognita. The bars represent the percentage of live nematodes after 48 hours' exposure. Concentration of 1 mg of each extract for a final volume of 0.3 mL and 100 second-stage juveniles was used in the bioassay in triplicate, having distilled water as negative control. […]
(§1) FIG. 9—(A) Bioassay showing the effect of the commercial compounds on second-stage juveniles of M. incognita after 48 hours' exposure. 1—Control dH20, 2—DECE, 3—Glycose 10%, 4—Glycose 20%, 5—D-Pinitol (80 ug), 6—D-Pinitol (150 ug), 7—L-canavanina (80 ug), 8—L-canavanina (150 ug), 9—palmitic acid (80 ug), 10—palmitic acid (150 ug), 11—citric acid (80 ug), 12—citric acid (150 ug), 13—malic acid (80 ug), 14—malic acid (150 ug), 15—cis-aconitic acid (80 ug), 16—cis-anonitic acid (150 ug), 17—trans-anonitic acid (80 ug), 18—trans-aconitic acid (150 ug), 19—50 mM Tris/HCl pH 8, 20—50 mM acetic acid pH 5, 21—L-phenylamine (80 ug), 22—L-phenylamine (150 ug), 23—L-methionine (80 ug), 24—L-methionine (150 ug), 25—L-tryptophan (80 ug), 26—L-tryptophan (150 ug), 27—S-carboxymethylcistein (80 ug), 28—S-carboxymethylcisteine (150 ug), 29—Zantotoxine (80 ug), 30—Zantotoxine (150 ug), and 31—Glucose 20%+L-canavanine (15)ug). B—Evaluation of the effect of the different commercial compounds after the recovery assay using distilled water.
FIG. 10—(A) Bioassay showing the effect of the commercial compounds and their compositions on second-stage juveniles of M. incognita […] after 48 hours' exposure. C+ positive control (extract); C—: negative control (water); 2: palmitic acid; 3: S-carboxymethylcisteine; 4: trans-aconitic acid; 5: glucose. […] (B)—Evaluation of the effect of the different commercial compounds and their compositions after the recovery assay using distilled water. C+ positive control (extract); 2: palmitic acid; 3: s-carboxymethylcisteine; 4: trans-aconitic acid; 5: glucose.

[2] = system: J2 of M. incognita; assay: recovery assay using distilled water, certifying nematicidal or nematostatic effect; assay type: in vivo
Protocol: as §1
FIG. 10—(A) Bioassay showing the effect of the commercial compounds and their compositions on second-stage juveniles of M. incognita […] after 48 hours' exposure. C+ positive control (extract); C—: negative control (water); 2: palmitic acid; 3: S-carboxymethylcisteine; 4: trans-aconitic acid; 5: glucose. Concentrations of the compositions: 3+4, 3+5=0.25 g/L (each active compound of the composition); 3+4+5=0.17 g/L each active compound of the composition. (B)—Evaluation of the effect of the different commercial compounds and their compositions after the recovery assay using distilled water. C+ positive control (extract); 2: palmitic acid; 3: s-carboxymethylcisteine; 4: trans-aconitic acid; 5: glucose. Concentrations of the compositions: 3+4, 3+5, 4+5=0.25 g/L (each active compound of the composition); 3+4+5=0.17 g/L each active compound of the composition.

Compound	J2 paralyzed ([1]; 80 μg/300 μL)	J2 paralyzed ([1]; 150 μg/300 μL)	nematicidal activity after the recovery assay ([2]; 150 μg/300 μL) [%]	other results
S-carboxymethylcisteine	about 90%	about 90%		% paralyzed namatodes [1]: 43.03%; J2 recovering the mobility after the recovery test ([2]; 80 μg/300 μL): most J2 recovering the movement; J2 recovering the mobility after the recovery test ([2]; 150 μg/300 μL): most J2 recovering the movement
CO[C@H]1[C@H](O)[C@@H](O)[C@@H](O)[C@H](O)[C@@H]1O [D-pinitol]	did not exhibit any toxic effect	did not exhibit any toxic effect		
N[C@@H](Cc1ccccc1)C(=O)O [L-phenylamnine]	not capable of affecting the J2	not capable of affecting the J2		
N=C(N)NOCC[C@H](N)C(=O)O [L-canavanine]	did not exhibit any nematotoxic activity			juveniles remaining paralyzed after the recovery assay (nematicidal activity) ([2]; 105 μg/300 μL): 25%
O=C(O)/C=C(\CC(=O)O)C(=O)O [trans-aconitic acid]	90%		98	% paralyzed namatodes [1]: 11.12%; % of paralyzed nematodes ([1]; 0.25 g/L (of each compound in the composition)): 27.08%
COc1c2occc2cc2ccc(=O)oc12 [Xantotoxin]	87%	87%		J2 recovering the mobility after the recovery test ([2]; 80 μg/300 μL): did not recover the mobility; J2 recovering the mobility after the recovery test ([2]; 150 μg/300 μL): did not recover the mobility
CCCCCCCCCCCCCCCC(=O)O [palmitic acid]	98%			J2 recovering the mobility after the recovery test ([2]; 80 μg/300 μL): 90%; J2 recovering the mobility after the recovery test ([2]; 150 μg/300 μL): 90%
O=C(O)CC(O)(CC(=O)O)C(=O)O [citric acid]	very low percentage		25	
O=C(O)/C=C(/CC(=O)O)C(=O)O [cis-aconitic acid]	very low percentage		40	
O=C(O)CC(O)C(=O)O (stereo not drawn) [malic acid]	very low percentage		18	
N[C@@H](Cc1c[nH]c2ccccc12)C(=O)O [L-triptofane]	not capable of affecting the J2	not capable of affecting the J2		
